Starred links: 1 amine or outer side, 2 acyl side, 3 side chain; linkers in the order of their positions; H or OH if unused. Non-standard residues stand in square brackets, D forms with d. Residues, ends and D or L forms follow the SMILES beside them. Groups on a side chain read outwards from the residue. *: point of attachment. C20 diacid = O=C(O)CCCCCCCCCCCCCCCCCCC(=O)*; C18 diacid = O=C(O)CCCCCCCCCCCCCCCCC(=O)*; γGlu = O=C(O)[C@H](CCC(=O)[*:2])N[*:1]; αMeF = C[C@](N)(Cc1ccccc1)C(=O)O; AEEA = NCCOCCOCC(=O)O; Aib = CC(C)(N)C(=O)O
What was measured:
[1] = target: human glucagon receptor (hGCGR) (Homo sapiens, UniProt P47871); assay: cAMP production (HTRF) in CHO cells expressing hGCGR; format: cell-based; set-up: expressed in transfected cells; settings: Table 6, peptides modified at position 17; cAMP in CHO hGCGR cells; geometric mean; read-out: hGluc-R EC50
Method: Cells were re-suspended in assay buffer at a batch-dependent optimized concentration (typically hGLP-1R cells at 1×10^5 cells/mL, hGCGR cells at 2×10^5 cells/mL).
Cells were added to the assay plate using a multidrop dispenser and incubated at room temperature for 30 minutes before measuring the cAMP level using a cAMP dynamic 2 homogeneous time resolved Fluorescence (HTRF) kit (Cisbio Bioassays #62AM4PEJ) following the two-step protocol as per manufacturer's recommendations. In brief, anti-cAMP cryptate (donor fluorophore) and cAMP-d2 (acceptor fluorophore) were made up separately by diluting each 1 in 20 in conjugate and lysis buffer provided in the kit. Anti-CAMP cryptate was added to all wells of the assay plate, followed by cAMP-d2 added to all wells except non-specific binding (NSB) wells (to which conjugate and lysis buffer was added).
Data was transformed to % Delta F as described in the manufacturer's guidelines and analyzed by 4-parameter logistic fit to determine EC50 values.

[2] = target: human GLP-1 receptor (hGLP-1R) (Homo sapiens, UniProt P43220); assay: cAMP production (HTRF) in CHO cells expressing hGLP-1R; format: cell-based; set-up: expressed in transfected cells; settings: for EC50: Table 6, peptides modified at position 17, cAMP in CHO hGLP-1R cells, geometric mean, read-out: hGLP-1R EC50; for % Relative Potency Ratio: Table 6, % GLP-1R activity relative to GLP-1 / % GlucR activity relative to glucagon
Summary of the method: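 Read-out: HTRF cAMP (anti-cAMP cryptate donor, cAMP-d2 acceptor in conjugate/lysis buffer), converted to % Delta F and fitted by 4-parameter logistic for EC50. Cell densities were 1×10^5 cells/mL (hGLP-1R) or 2×10^5 cells/mL (hGCGR). Stimulation lasted 30 min at room temperature.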

human glucagon receptor (hGCGR), sequence (P47871 26-477): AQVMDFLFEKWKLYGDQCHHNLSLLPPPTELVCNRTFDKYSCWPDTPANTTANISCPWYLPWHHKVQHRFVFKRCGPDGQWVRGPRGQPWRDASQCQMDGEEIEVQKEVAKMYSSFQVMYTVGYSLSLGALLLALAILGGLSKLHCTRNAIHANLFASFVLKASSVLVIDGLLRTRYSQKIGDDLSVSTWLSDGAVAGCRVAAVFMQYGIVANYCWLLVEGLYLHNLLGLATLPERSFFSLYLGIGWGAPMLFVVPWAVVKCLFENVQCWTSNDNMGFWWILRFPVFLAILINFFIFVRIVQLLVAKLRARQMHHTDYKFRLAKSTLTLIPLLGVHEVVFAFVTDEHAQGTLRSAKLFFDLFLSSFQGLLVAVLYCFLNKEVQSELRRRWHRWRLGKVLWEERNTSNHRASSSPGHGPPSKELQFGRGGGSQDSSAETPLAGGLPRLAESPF
human GLP-1 receptor (hGLP-1R), sequence (P43220 24-463): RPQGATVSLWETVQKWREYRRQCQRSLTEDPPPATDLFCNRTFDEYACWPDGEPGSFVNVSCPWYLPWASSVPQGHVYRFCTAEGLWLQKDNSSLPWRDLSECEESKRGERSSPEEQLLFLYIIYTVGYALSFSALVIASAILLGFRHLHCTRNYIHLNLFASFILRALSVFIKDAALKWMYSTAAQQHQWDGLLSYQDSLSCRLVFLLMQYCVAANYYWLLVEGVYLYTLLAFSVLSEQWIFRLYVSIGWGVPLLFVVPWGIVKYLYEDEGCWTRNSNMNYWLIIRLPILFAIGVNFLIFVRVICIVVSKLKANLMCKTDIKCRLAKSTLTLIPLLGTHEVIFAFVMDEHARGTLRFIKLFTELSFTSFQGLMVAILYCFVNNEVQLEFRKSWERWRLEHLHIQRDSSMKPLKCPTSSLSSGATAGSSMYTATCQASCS

Structure (SMILES) | EC50 [1] [pM] | EC50 [2] [pM] | % Relative Potency Ratio [2]
CC[C@H](C)[C@H](NC(=O)C(C)(C)NC(=O)[C@H](CCC(N)=O)NC(=O)[C@@H](NC(=O)[C@](C)(Cc1ccccc1)NC(=O)[C@H](CC(=O)O)NC(=O)[C@H](CCC(N)=O)NC(=O)[C@H](C)NC(=O)[C@H](C)NC(=O)[C@H](CCCCNC(=O)COCCOCCNC(=O)COCCOCCNC(=O)CC[C@H](NC(=O)CCCCCCCCCCCCCCCCC(=O)O)C(=O)O)NC(=O)[C@H](CO)NC(=O)[C@H](CC(=O)O)NC(=O)[C@H](CC(C)C)NC(=O)C(C)(C)NC(=O)[C@H](CCCCN)NC(=O)[C@H](CO)NC(=O)[C@@H](NC(=O)[C@H](CC(=O)O)NC(=O)[C@H](CO)NC(=O)[C@@H](NC(=O)[C@](C)(Cc1ccccc1)NC(=O)[C@H](CO)NC(=O)CNC(=O)[C@H](CCC(N)=O)NC(=O)[C@H](CO)NC(=O)[C@@H](N)Cc1c[nH]cn1)[C@@H](C)O)C(C)C)C(C)C)C(=O)N[C@@H](C)C(=O)N[C@@H](CC(N)=O)C(N)=O [Peptide 1] (H-HSQGS[αMeF]TSDVSK[Aib]LDSK([AEEA-AEEA-γGlu-C18 diacid])AAQD[αMeF]VQ[Aib]IAN-NH2; N-terminus assumed) | > 27100 | 3200 | 
CC[C@H](C)[C@H](NC(=O)[C@H](Cc1c[nH]c2ccccc12)NC(=O)[C@H](CCC(N)=O)NC(=O)[C@@H](NC(=O)[C@](C)(Cc1ccccc1)NC(=O)[C@H](CC(=O)O)NC(=O)[C@H](CCC(N)=O)NC(=O)[C@H](C)NC(=O)[C@H](C)NC(=O)[C@H](CCCCNC(=O)COCCOCCNC(=O)COCCOCCNC(=O)CC[C@H](NC(=O)CCCCCCCCCCCCCCCCCCC(=O)O)C(=O)O)NC(=O)[C@H](CO)NC(=O)[C@H](CC(=O)O)NC(=O)[C@H](CC(C)C)NC(=O)[C@](C)(Cc1ccccc1)NC(=O)[C@H](CCCCN)NC(=O)[C@H](CO)NC(=O)[C@@H](NC(=O)[C@H](CC(=O)O)NC(=O)[C@H](CO)NC(=O)[C@@H](NC(=O)[C@](C)(Cc1ccccc1)NC(=O)[C@H](CO)NC(=O)CNC(=O)[C@H](CCC(N)=O)NC(=O)[C@H](CO)NC(=O)[C@@H](N)Cc1c[nH]cn1)[C@@H](C)O)C(C)C)C(C)C)C(=O)N[C@@H](C)C(=O)N[C@@H](CC(N)=O)C(=O)N[C@H](C(N)=O)[C@@H](C)O [Peptide 2] (H-HSQGS[αMeF]TSDVSK[αMeF]LDSK([AEEA-AEEA-γGlu-C20 diacid])AAQD[αMeF]VQWIANT-NH2; N-terminus assumed) | 4190 | 1280 | 6.5
CC[C@H](C)[C@H](NC(=O)[C@H](Cc1c[nH]c2ccccc12)NC(=O)[C@H](CCC(N)=O)NC(=O)[C@@H](NC(=O)[C@H](Cc1ccccc1)NC(=O)[C@H](CC(=O)O)NC(=O)[C@H](CCC(N)=O)NC(=O)[C@H](C)NC(=O)[C@H](C)NC(=O)[C@H](CCCCNC(=O)CC[C@H](NC(=O)CCCCCCCCCCCCCCCCC(=O)O)C(=O)O)NC(=O)[C@H](CO)NC(=O)[C@H](CC(=O)O)NC(=O)[C@H](CC(C)C)NC(=O)[C@](C)(Cc1ccccc1)NC(=O)[C@H](CCCCN)NC(=O)[C@H](CO)NC(=O)[C@@H](NC(=O)[C@H](CC(=O)O)NC(=O)[C@H](CO)NC(=O)[C@@H](NC(=O)[C@](C)(Cc1ccccc1)NC(=O)[C@H](CO)NC(=O)CNC(=O)[C@H](CCC(N)=O)NC(=O)[C@H](CO)NC(=O)[C@@H](N)Cc1c[nH]cn1)[C@@H](C)O)C(C)C)C(C)C)C(=O)N[C@@H](C)C(=O)N[C@@H](CC(N)=O)C(=O)N[C@H](C(N)=O)[C@@H](C)O [Peptide 3] (H-HSQGS[αMeF]TSDVSK[αMeF]LDSK([γGlu-C18 diacid])AAQDFVQWIANT-NH2; N-terminus assumed) | 149 | 69 | 4.3
CC[C@H](C)[C@H](NC(=O)[C@H](Cc1c[nH]c2ccccc12)NC(=O)[C@H](CCC(N)=O)NC(=O)[C@@H](NC(=O)[C@H](Cc1ccccc1)NC(=O)[C@H](CC(=O)O)NC(=O)[C@H](CCC(N)=O)NC(=O)[C@H](C)NC(=O)[C@H](C)NC(=O)[C@H](CCCCNC(=O)COCCOCCNC(=O)COCCOCCNC(=O)CC[C@H](NC(=O)CCCCCCCCCCCCCCCCC(=O)O)C(=O)O)NC(=O)[C@H](CO)NC(=O)[C@H](CC(=O)O)NC(=O)[C@H](CC(C)C)NC(=O)[C@](C)(Cc1ccccc1)NC(=O)[C@H](CCCCN)NC(=O)[C@H](CO)NC(=O)[C@@H](NC(=O)[C@H](CC(=O)O)NC(=O)[C@H](CO)NC(=O)[C@@H](NC(=O)[C@](C)(Cc1ccccc1)NC(=O)[C@H](CO)NC(=O)CNC(=O)[C@H](CCC(N)=O)NC(=O)[C@H](CO)NC(=O)[C@@H](N)Cc1c[nH]cn1)[C@@H](C)O)C(C)C)C(C)C)C(=O)N[C@@H](C)C(=O)N[C@@H](CC(N)=O)C(=O)N[C@H](C(N)=O)[C@@H](C)O [Peptide 4] (H-HSQGS[αMeF]TSDVSK[αMeF]LDSK([AEEA-AEEA-γGlu-C18 diacid])AAQDFVQWIANT-NH2) | 1170 | 240 | 9.6
CC[C@H](C)[C@H](NC(=O)C(C)(C)NC(=O)[C@H](CCC(N)=O)NC(=O)[C@@H](NC(=O)[C@](C)(Cc1ccccc1)NC(=O)[C@H](CC(=O)O)NC(=O)[C@H](CCC(N)=O)NC(=O)[C@H](C)NC(=O)[C@H](C)NC(=O)[C@H](CCCCNC(=O)COCCOCCNC(=O)COCCOCCNC(=O)CC[C@H](NC(=O)CC[C@H](NC(=O)CCCCCCCCCCCCCCCCC(=O)O)C(=O)O)C(=O)O)NC(=O)[C@H](CO)NC(=O)[C@H](CC(=O)O)NC(=O)[C@H](CC(C)C)NC(=O)[C@](C)(Cc1ccccc1)NC(=O)[C@H](CCCCN)NC(=O)[C@H](CO)NC(=O)[C@@H](NC(=O)[C@H](CC(=O)O)NC(=O)[C@H](CO)NC(=O)[C@@H](NC(=O)[C@](C)(Cc1ccccc1)NC(=O)[C@H](CO)NC(=O)CNC(=O)[C@H](CCC(N)=O)NC(=O)C(C)(C)NC(=O)[C@@H](N)Cc1c[nH]cn1)[C@@H](C)O)C(C)C)C(C)C)C(=O)N[C@@H](C)C(=O)N[C@@H](CC(N)=O)C(N)=O [Peptide 5] (H-H[Aib]QGS[αMeF]TSDVSK[αMeF]LDSK([AEEA-AEEA-γGlu-γGlu-C18 diacid])AAQD[αMeF]VQ[Aib]IAN-NH2; N-terminus assumed) | 7140 | 283 | 49.9
CC[C@H](C)[C@H](NC(=O)[C@H](Cc1c[nH]c2ccccc12)NC(=O)[C@H](CCC(=O)O)NC(=O)[C@@H](NC(=O)[C@](C)(Cc1ccccc1)NC(=O)[C@H](CC(=O)O)NC(=O)[C@H](CCC(N)=O)NC(=O)[C@H](C)NC(=O)[C@H](C)NC(=O)[C@H](CCCCNC(=O)COCCOCCNC(=O)COCCOCCNC(=O)CC[C@H](NC(=O)CCCCCCCCCCCCCCCCC(=O)O)C(=O)O)NC(=O)[C@H](CO)NC(=O)[C@H](CC(=O)O)NC(=O)[C@H](CC(C)C)NC(=O)[C@](C)(Cc1ccccc1)NC(=O)[C@H](CCCCN)NC(=O)[C@H](CO)NC(=O)[C@@H](NC(=O)[C@H](CC(=O)O)NC(=O)[C@H](CO)NC(=O)[C@@H](NC(=O)[C@](C)(Cc1ccccc1)NC(=O)[C@H](CO)NC(=O)CNC(=O)[C@H](Cc1c[nH]cn1)NC(=O)C(C)(C)NC(=O)[C@@H](N)Cc1c[nH]cn1)[C@@H](C)O)C(C)C)C(C)C)C(=O)N[C@@H](C)C(=O)N[C@@H](CC(N)=O)C(N)=O [Peptide 6] (H-H[Aib]HGS[αMeF]TSDVSK[αMeF]LDSK([AEEA-AEEA-γGlu-C18 diacid])AAQD[αMeF]VEWIAN-NH2; N-terminus assumed) | 516 | 568 | 1.8
CC[C@H](C)[C@H](NC(=O)[C@H](Cc1c[nH]c2ccccc12)NC(=O)[C@H](CCC(N)=O)NC(=O)[C@@H](NC(=O)[C@H](Cc1ccccc1)NC(=O)[C@H](CC(=O)O)NC(=O)[C@H](CCC(N)=O)NC(=O)[C@H](C)NC(=O)[C@H](C)NC(=O)[C@H](CCCCNC(=O)COCCOCCNC(=O)COCCOCCNC(=O)CC[C@H](NC(=O)CCCCCCCCCCCCCCCCC(=O)O)C(=O)O)NC(=O)[C@H](CO)NC(=O)[C@H](CC(=O)O)NC(=O)[C@H](CC(C)C)NC(=O)[C@](C)(Cc1ccccc1)NC(=O)[C@H](CCCCN)NC(=O)[C@H](CO)NC(=O)[C@@H](NC(=O)[C@H](CC(=O)O)NC(=O)[C@H](CO)NC(=O)[C@@H](NC(=O)[C@](C)(Cc1ccccc1)NC(=O)[C@H](CO)NC(=O)CNC(=O)[C@H](Cc1c[nH]cn1)NC(=O)C(C)(C)NC(=O)[C@@H](N)Cc1c[nH]cn1)[C@@H](C)O)C(C)C)C(C)C)C(=O)N[C@@H](C)C(=O)N[C@@H](CC(N)=O)C(=O)N[C@H](C(N)=O)[C@@H](C)O [Peptide 8] (H-H[Aib]HGS[αMeF]TSDVSK[αMeF]LDSK([AEEA-AEEA-γGlu-C18 diacid])AAQDFVQWIANT-NH2; N-terminus assumed) | 53.6 | 87.8 | 1.2

— patent US20250353891A1 (MEDIMMUNE LIMITED, priority 2022, published 2025)
